Several values for one entry are separate records, joined by “and”; a condition that tells them apart may be missing. Identical values can stand only once.
Tested on: 993429-296-R-J1-PDC complex spheroid growth, percent test/control
Experiment: Anticancer human tumor 993429-296-R-J1-PDC patient-derived uterine sarcoma cell line growth inhibition [Asc]
Conditions: for viability, T/C: stronger effect = lower value
Experimental: Multicellular complex tumor spheroid response to apoptosis pathway targeting inhibitors Alrizomadlin, Pelcitoclax, and Dasminapant in combination with a variety of drugs and investigational agents in selected tumor cell lines
The MDM2 inhibitor alrizomadlin, the Bcl-2/Bcl-xL inhibitor pelcitoclax, and the IAPs inhibitor dasminapant were evaluated both individually and in combination with standard of care and investigational anticancer small molecules within a complex spheroid model of solid tumors. . Complex spheroids include a stromal component modeled by human endothelial cells (HUVEC) and fibroblasts modeled by human mesenchymal stem cells (MSCs). The concentration ranges selected for each drug and investigational agent were based upon clinically achievable concentrations if the clinical Cmax of the agent was known.
Compounds. The drugs and investigational agents: alrizomadlin (APG-115; NSC831270), pelcitoclax (APG-1252; NSC835773), dasminapant (APG-1387;NSC834197), TAK-243 (NSC785004), copanlisib (NSC809693), olaparib (NSC753686), talazoparib (NSC767125), cobimetinib (NSC 768068), eltanexor (KPT-8602, NSC 794443), abemaciclib (NSC 768073), sotorasib (NSC818433), adagrasib (NSC 831453), MRTX-1133 (NSC 836407), Iadademestat (ORY1001, NSC 806812), and RMC-4630 (NSC839698), were obtained from the NCI Developmental Therapeutics Program Chemical Repository. The FDA-approved anticancer drug set is available from the Developmental Therapeutics Program at https://dtp.cancer.gov/organization/dscb/obtaining/available plates.htm. […] The stock solutions were prepared in dimethyl sulfoxide (DMSO, Sigma-Aldrich, St. Louis, MO, cat. D2650) at 800-fold the tested concentration and stored at -70 degrees C prior to their use. All drugs and investigational agents were tested over a range starting from a high concentration at or near the clinical Cmax and decreasing in half-log increments. If the clinical Cmax for an agent had not been determined, the highest concentration tested was 10 microM.
The patient-derived cancer (PDC) cell lines include five colon adenocarcinomas: 186277-243-T-J2-PDC, 616215-338-R-J1-PDC, 439559-082-T-J2-PDC, 463943-066-T-J2-PDC, and 519858-162-T-J1-PDC; three pancreatic carcinomas: 323965-272-R-J2-PDC, 521955-158-R6-J3-PDC, and 521955-158-R2-J5-PDC; two uterine sarcomas: 327498-152-R-J2-PDC and 993429-296-R-J1-PDC; two rhabdomyosarcomas: 755483-174-R-J1-PDC and 772245-204-R-J1-PDC; two soft tissue sarcomas: 126254-015-R-J1-PDC and 494315-158-R-J1-PDC; two malignant fibrous histiocytomas: 317291-083-R-J1-PDC and 596521-263-R-J1-PDC; two breast carcinomas: 171881-019-R-J1-PDC and 885512-296-R-J2-PDC; and one ovarian carcinoma: 6556581-035-R-J-PDC were obtained from the NCI PDMR, (https://pdmr.cancer.gov). The established cell lines HSSY-2 synovial sarcoma (RRID:CVCL 8719), SYO-1 synovial sarcoma (RRID:CVCL_7146), MPNST malignant peripheral neural sheath tumor were obtained from the Sloan Kettering Institute. The following established cell lines were purchased from the American Type Culture Collection (ATCC, Manassas, VA), Sor the received from the NCI repository:, PANC-1 pancreatic carcinoma (CRL-1469, RRID:CVCL_0480), OVCAR-5 ovarian carcinoma (RRID:CVCL_1628), OVCAR-8 ovarian carcinoma (RRID:CVCL_1629), , MCF-7 breast carcinoma (CRL-12584, RRID:CVCL_0031), MDA-MB-231 breast carcinoma (CRL-12532, RRID:CVCL_0062), NCI-H1876 small cell lung carcinoma (CRL-5902, RRID:CVCL_1503), NCI-H510A small cell lung carcinoma (HTB-184, RRID:CVCL_1565), NCI-H1417 (CRL-5869, RRID:CVCL_1469), and NCI-H196 small cell lung carcinoma (CRL-5823, RRID:CVCL_1509). Dr. Peter Houghton (Greehey Children's Cancer Research Institute, University of Texas Health Science Center, San Antonio, TX) provided Rh-18 rhabdomyosarcoma (RRID:CVCL_1659). Pooled donor human umbilical vein endothelial cells (HUVEC, Lonza, cat. CC-2519) and human mesenchymal stem cells (hMSC, Lonza, cat. PT-2501) were purchased from Lonza (Walkersville, MD).
Cell Culture. […]
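Also: spheroids exposed to compounds for seven days.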

Q: Which IC50 (curve of first compound, second compound 0.1 µM) does the source give for `COc1c(OCCCN2CCOCC2)ccc2c3n(c(=NC(=O)c4cnc(N)nc4)nc12)CCN3` + Cc1c(S(C)(=O)=O)c(-c2cc(F)cc(N3CCN(c4ccc(NS(=O)(=O)c5ccc(NC(CCN6CCC(C(=O)OCCCP(=O)(O)O)CC6)CSc6ccccc6)c(S(=O)(=O)C(F)(F)F)c5)cc4)CC3)c2)c(-c2ccc(Cl)cc2)n1C(C)C here?
A: The IC50 was 12.6 nM.

Q: And the IC50 (curve of first compound, second compound 0.316 µM)?
A: The IC50 was 11.6 nM.

Q: What about the IC50 (curve of first compound, second compound 1 µM) of the same compound?
A: Its IC50 is 4.23 nM.

Q: What about the IC50 (curve of first compound, second compound 3.16 µM) of the same compound?
A: Its IC50 is under 3.16 nM.

Q: What about the IC50 (curve of first compound, second compound 10 µM) of the same compound?
A: The IC50 was 10.1 nM.

Q: And the viability, T/C (second compound 0.1 µM, first compound 0.00316 µM)?
A: The viability, T/C was 76.5%.

Q: What about the viability, T/C (second compound 0.1 µM, first compound 0.01 µM) of the same compound?
A: The viability, T/C was 54.1%.

Q: And the viability, T/C (second compound 0.1 µM, first compound 0.0316 µM)?
A: The viability, T/C was 29.3%.

Q: What about the viability, T/C (second compound 0.1 µM, first compound 0.1 µM) of the same compound?
A: Its viability, T/C is 3.96%.

Q: And the viability, T/C (second compound 0.1 µM, first compound 0.316 µM)?
A: Its viability, T/C is 1.63%.

Q: And the viability, T/C (second compound 0.1 µM, first compound 1 µM)?
A: Its viability, T/C is 0.23%.

Q: What about the viability, T/C (second compound 0.316 µM, first compound 0.00316 µM) of the same compound?
A: Its viability, T/C is 71.7%.

Q: What about the viability, T/C (second compound 0.316 µM, first compound 0.01 µM) of the same compound?
A: Its viability, T/C is 54%.

Q: What about the viability, T/C (second compound 0.316 µM, first compound 0.0316 µM) of the same compound?
A: The viability, T/C was 22.2%.

Q: And the viability, T/C (second compound 0.316 µM, first compound 0.1 µM)?
A: The viability, T/C was 3.44%.

Q: And the viability, T/C (second compound 0.316 µM, first compound 0.316 µM)?
A: The viability, T/C was 0.88%.

Q: And the viability, T/C (second compound 0.316 µM, first compound 1 µM)?
A: The viability, T/C was 0.17%.

Q: What about the viability, T/C (second compound 1 µM, first compound 0.00316 µM) of the same compound?
A: Its viability, T/C is 54.2%.

Q: And the viability, T/C (second compound 1 µM, first compound 0.01 µM)?
A: Its viability, T/C is 37.9%.

Q: And the viability, T/C (second compound 1 µM, first compound 0.0316 µM)?
A: The viability, T/C was 23.3%.

Q: What about the viability, T/C (second compound 1 µM, first compound 0.1 µM) of the same compound?
A: Its viability, T/C is 3.11%.

Q: And the viability, T/C (second compound 1 µM, first compound 0.316 µM)?
A: Its viability, T/C is 0.68%.

Q: What about the viability, T/C (second compound 1 µM, first compound 1 µM) of the same compound?
A: Its viability, T/C is 0.31%.

Q: What about the viability, T/C (second compound 3.16 µM, first compound 0.00316 µM) of the same compound?
A: The viability, T/C was 35.8%.

Q: What about the viability, T/C (second compound 3.16 µM, first compound 0.01 µM) of the same compound?
A: Its viability, T/C is 33.7%.

Q: And the viability, T/C (second compound 3.16 µM, first compound 0.0316 µM)?
A: The viability, T/C was 14.8%.

Q: And the viability, T/C (second compound 3.16 µM, first compound 0.1 µM)?
A: The viability, T/C was 2.35%.

Q: And the viability, T/C (second compound 3.16 µM, first compound 0.316 µM)?
A: Its viability, T/C is 0.33%.

Q: And the viability, T/C (second compound 3.16 µM, first compound 1 µM)?
A: The viability, T/C was 0.18%.

Q: And the viability, T/C (second compound 10 µM, first compound 0.00316 µM)?
A: The viability, T/C was 79.3%.

Q: And the viability, T/C (second compound 10 µM, first compound 0.01 µM)?
A: The viability, T/C was 49.4%.

Q: And the viability, T/C (second compound 10 µM, first compound 0.0316 µM)?
A: The viability, T/C was 20.7%.

Q: And the viability, T/C (second compound 10 µM, first compound 0.1 µM)?
A: The viability, T/C was 1.24%.

Q: And the viability, T/C (second compound 10 µM, first compound 0.316 µM)?
A: Its viability, T/C is 0.28%.

Q: What about the viability, T/C (second compound 10 µM, first compound 1 µM) of the same compound?
A: The viability, T/C was 0.25%.

Q: For `C#Cc1c(F)ccc2cc(O)cc(-c3ncc4c(N5CC6CCC(C5)N6)nc(OCC56CCCN5CC(F)C6)nc4c3F)c12` (stereo unspecified), which viability, T/C (compound 0.0316 µM) is on record?
A: Its viability, T/C is 102% and 88% and 97.9%.

Q: What about the viability, T/C (compound 0.1 µM) of the same compound?
A: The viability, T/C was 108% and 101% and 89.1%.

Q: And the viability, T/C (compound 0.316 µM)?
A: The viability, T/C was 86% and 86.7% and 88.8%.

Q: What about the viability, T/C (compound 1 µM) of the same compound?
A: Its viability, T/C is 93.3% and 82.2% and 100%.

Q: What about the viability, T/C (compound 3.16 µM) of the same compound?
A: Its viability, T/C is 91.9% and 81.4% and 106%.

Q: What about the IC50 (curve of compound) of the same compound?
A: Its IC50 is > 10000 nM and 5020 nM and 5680 nM.

Q: What does the source list for `NC1CCC(NC2CC2c2ccccc2)CC1` (stereo unspecified) + CCN1C(C(=O)NC23CCC(C(=O)O)(CC2)CC3)C(c2cccc(Cl)c2F)C2(C(=O)Nc3cc(Cl)ccc32)C12CCCCC2?
A: IC50 (curve of first compound, second compound 0.03 µM): > 100 nM; IC50 (curve of first compound, second compound 0.0949 µM): > 100 nM; IC50 (curve of first compound, second compound 0.3 µM): > 100 nM; IC50 (curve of first compound, second compound 0.949 µM): > 100 nM; IC50 (curve of first compound, second compound 3 µM): > 100 nM; viability, T/C (second compound 0.03 µM, first compound 0.000316 µM): 76.4%; viability, T/C (second compound 0.03 µM, first compound 0.001 µM): 75.4%; viability, T/C (second compound 0.03 µM, first compound 0.00316 µM): 80.2%; viability, T/C (second compound 0.03 µM, first compound 0.01 µM): 77.8%; viability, T/C (second compound 0.03 µM, first compound 0.0316 µM): 81.4%; viability, T/C (second compound 0.03 µM, first compound 0.1 µM): 91.8%; viability, T/C (second compound 0.0949 µM, first compound 0.000316 µM): 91.1%; viability, T/C (second compound 0.0949 µM, first compound 0.001 µM): 77.5%; viability, T/C (second compound 0.0949 µM, first compound 0.00316 µM): 74.7%; viability, T/C (second compound 0.0949 µM, first compound 0.01 µM): 66.8%; viability, T/C (second compound 0.0949 µM, first compound 0.0316 µM): 93%; viability, T/C (second compound 0.0949 µM, first compound 0.1 µM): 81.5%; viability, T/C (second compound 0.3 µM, first compound 0.000316 µM): 98.2%; viability, T/C (second compound 0.3 µM, first compound 0.001 µM): 74.7%; viability, T/C (second compound 0.3 µM, first compound 0.00316 µM): 69%; viability, T/C (second compound 0.3 µM, first compound 0.01 µM): 80.2%; viability, T/C (second compound 0.3 µM, first compound 0.0316 µM): 69.3%; viability, T/C (second compound 0.3 µM, first compound 0.1 µM): 83.8%; viability, T/C (second compound 0.949 µM, first compound 0.000316 µM): 72%; viability, T/C (second compound 0.949 µM, first compound 0.001 µM): 76.9%; viability, T/C (second compound 0.949 µM, first compound 0.00316 µM): 83.1%; viability, T/C (second compound 0.949 µM, first compound 0.01 µM): 83.2%; viability, T/C (second compound 0.949 µM, first compound 0.0316 µM): 76.6%; viability, T/C (second compound 0.949 µM, first compound 0.1 µM): 88.9%; viability, T/C (second compound 3 µM, first compound 0.000316 µM): 75.2%; viability, T/C (second compound 3 µM, first compound 0.001 µM): 85.6%; viability, T/C (second compound 3 µM, first compound 0.00316 µM): 79.7%; viability, T/C (second compound 3 µM, first compound 0.01 µM): 74.1%; viability, T/C (second compound 3 µM, first compound 0.0316 µM): 70.3%; viability, T/C (second compound 3 µM, first compound 0.1 µM): 71%

Source: PubChem BioAssay AID1963446 (Molecular Pharmacology Branch, DTP, NCI, 2024)
